The values below come from US11466025B2, “Thienopyridine derivatives containing unsaturated aliphatic olefinic bond, preparation method and use thereof” (Tianjin Institute of Pharmaceutical Research Co., Ltd., priority 2017, dated 2022).

In series [1] the test system is platelet aggregation induced by ADP. The series can be described thus: Test of inhibitory effect of compounds on platelet aggregation in rats (ex vivo, ADP-induced, after intragastric administration). Further details: species or system SD rats. The conditions noted are these: rats; for Inhibition rate (%): platelet aggregation, control = 100%; for Aggregation rate (%): 2 h after administration, ADP 20 uM. The protocol: Test of Inhibitory Effect of Compounds on Platelet Aggregation in Rats Healthy male SD rats were selected and randomly divided into solvent control group, positive drug control group and test compound group. Intragastric administration was carried out, with the administration volume being 10 ml/kg˜bw. […] The platelet count was adjusted to 5×10^8 cells/ml with PPP.

In series [2] the test system is arteriovenous bypass thrombosis in rats. In words: Test of effect of compounds on arteriovenous bypass thrombosis in rats. The format is in vivo, SD rats. To be noted: rats; for Inhibition rate (%): dry weight of thrombus. The procedure:
Test of Effect of Compounds on Arteriovenous Bypass Thrombosis in Rats
Male SD rats were randomly divided into solvent control group, positive drug control group and test compound group. The solvent control group was administered a corresponding volume of the solvent. […] Rats were anesthetized with 4% chloral hydrate (0.32 g/kg), and fixed on the operating table at the supine position. The right common carotid artery and the left external jugular vein were separated, and was each inserted with a Teflon tube filled with normal saline solution containing heparin (50 U/mL), which were connected through another Teflon tube. A 6 cm long cotton thread was placed at the joints of the two tubes. After 2.5 h of administration, the arteriovenous loop was opened in each group and circulated for 15 min. The blood flow was interrupted, and the cotton thread wrapped with the thrombus was quickly removed and weighed. The weight of the cotton thread was subtracted to obtain the wet weight of the thrombus, and then it was baked in the oven to constant weight and weighed. The weight of the cotton thread was subtracted to obtain the dry weight of the thrombus.

For series [3], the system named is bleeding time of amputated tail in rats. In words: Test of hemorrhagic side effects: bleeding time of amputated tail in rats. It counts as in vivo, SD rats. The conditions noted are these: intragastric, tail cut 1 h after administration, linear equation fitted. The procedure:
Test of Hemorrhagic Side Effects:
1 h after administration, the rats were anesthetized by intraperitoneal injection of 20% urethane (1 g/kg), and the tail was cut off 5 mm from the tip of the tail, which was then placed in a test tube containing 5 ml normal saline at 37° C. The time from tail cut to cease of bleeding was recorded as the bleeding time. The increasing rate of bleeding time in each dose group was calculated, with the bleeding time of the rats in the control group being 100%.

Turning to `CC(=O)Oc1cc2c(s1)CCN(C(C(=O)C1CC1)c1ccccc1F)C2` (stereo not shown) [Prasugrel, reference compound], the ED50 in series [1] (Rattus norvegicus, inhibition of ADP-induced platelet aggregation, oral administration, read-out: ED50) was 0.612 mg/kg; in series [2] (Rattus norvegicus, po, dry weight of thrombus from arteriovenous bypass, intragastric, read-out: ED50) it was 1.57 mg/kg. The “Inhibition rate (%)” value stood at 13.3% in series [1] (intragastric 0.25 mg/kg); 37.8% in series [1] (intragastric 0.5 mg/kg); 75.0% in series [1] (intragastric 1 mg/kg); 6.0% in series [2] (intragastric 0.1 mg/kg); 9.0% in series [2] (intragastric 0.3 mg/kg); 35.7% in series [2] (intragastric 1 mg/kg). Also, the “Inhibition rate (%)” value in series [2] (intragastric 3 mg/kg) worked out at 70.2%. For the same compound, the “Aggregation rate (%)” value in series [1] (intragastric 0.25 mg/kg) was 52.1 ± 6.6%; in series [1] (intragastric 0.5 mg/kg), 37.4 ± 12.3 %; in series [1] (intragastric 1 mg/kg), 15.0 ± 10.2 %. The “ED200 (dose that doubled the bleeding time)” value in series [3] turned out to be 0.513 mg/kg.

Usually ED50 stands for the dose at which the effect has come halfway, by size or by number of responders.
